Measured values published in patent EP4603105A1, “PHARMACEUTICAL COMPOSITION CONTAINING CYCLIC COMPOUND HAVING SELECTIVE KRAS INHIBITORY EFFECT AGAINST HRAS AND NRAS” (CHUGAI SEIYAKU KABUSHIKI KAISHA, priority 2022, dated 2024).
*1 amine or outer side, *2 acyl side, *3 side chain or, on linkers, in order; H or OH if unused. Where a SMILES comes first, the peptide text is derived from it. Bridges are numbered along the chain shown (N, C = ends). [ ]: non-standard residue; d: D form. The star is where a group is joined. X6 = CC(C)(C)CCN([C@@H](Cc1ccc(C(F)(F)F)cc1)C(=O)[*:2])[*:1]; hPhe(3-Cl-4-CF3) = N[C@@H](CCc1ccc(C(F)(F)F)c(Cl)c1)C(=O)O; X8 = CCCN([C@@H](COCCC(C)C)C(=O)[*:2])[*:1]; NMeGly(cPent) = CN[C@H](C(=O)O)C1CCCC1; NMeD = CN[C@@H](CC(=O)O)C(=O)O; NMeL = CN[C@@H](CC(C)C)C(=O)O; Morpholide = C1CN(*)CCO1; NMeA = CN[C@@H](C)C(=O)O; Ac5c = NC1(C(=O)O)CCCC1; Aze = O=C(O)[C@@H]1CCN1; Ac4c = NC1(C(=O)O)CCC1; Sar = CNCC(=O)O

Columns and labels:
[1] = biological target: GDP-bound NRAS wild-type protein (Homo sapiens, UniProt P01111); test: Binding to NRAS by surface plasmon resonance (SPR), KD and KD ratio to KRAS
Chain of GDP-bound NRAS wild-type protein (P01111 whole entry): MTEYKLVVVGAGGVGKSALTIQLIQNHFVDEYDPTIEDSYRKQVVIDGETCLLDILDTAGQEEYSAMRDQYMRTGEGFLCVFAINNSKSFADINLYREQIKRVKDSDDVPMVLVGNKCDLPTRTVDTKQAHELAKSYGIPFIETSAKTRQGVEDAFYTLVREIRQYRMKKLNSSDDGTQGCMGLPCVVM
How it was run: (§1)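 Compound binding is evaluated by SPR single-cycle kinetics, with concentrations added intermittently from low to high for 75 s each. Target surfaces carry GDP-loaded biotinylated Avi-RAS at about 100–300 RU, regenerated after each cycle; temperature 30°C. A 1:1 binding model gives KD.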

[2] = system: human lung cancer strain NCI-H441; format: cell-based
How it was run: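 Proliferation was scored by […] measured after the reagent was added to cultures kept at 37°C in 5% carbon dioxide.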

HRAS wild-type protein = HRAS wild-type protein (Homo sapiens, UniProt P01112); test: Binding to HRAS by surface plasmon resonance (SPR), KD and KD ratio to KRAS
Chain of HRAS wild-type protein (P01112 whole entry): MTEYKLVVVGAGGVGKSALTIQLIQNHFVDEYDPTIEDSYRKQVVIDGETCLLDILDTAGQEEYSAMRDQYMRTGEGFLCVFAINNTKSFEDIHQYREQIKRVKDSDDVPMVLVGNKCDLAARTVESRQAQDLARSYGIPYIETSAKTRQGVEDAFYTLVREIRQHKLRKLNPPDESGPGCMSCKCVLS
How it was run: as §1

[3] = biological target: GDP-bound KRAS wild-type protein (Homo sapiens, UniProt P01116); test: Binding to KRAS by surface plasmon resonance (SPR), dissociation constant KD; details: 1:1 binding model
Chain of GDP-bound KRAS wild-type protein (P01116 1-188 isoform P01116-2): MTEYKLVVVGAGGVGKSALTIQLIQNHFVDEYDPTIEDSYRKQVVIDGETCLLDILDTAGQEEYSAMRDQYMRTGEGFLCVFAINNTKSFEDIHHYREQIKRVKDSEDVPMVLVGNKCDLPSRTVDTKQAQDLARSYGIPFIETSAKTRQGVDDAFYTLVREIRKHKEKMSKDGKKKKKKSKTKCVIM
How it was run: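 GDP-loaded biotinylated Avi-tag RAS proteins (E. coli-expressed) captured on a Biotin CAPture chip at ~100–300 RU; single-cycle kinetics at 30°C, 100 µL/min, 75 s injections of rising compound concentrations. HBS pH 7.4 running buffer with 1 mM DTT, 10 mM MgCl2, 10 µM GDP, 4% DMSO. KD from 1:1 binding fit.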

[4] = ratio of KD for GDP-bound NRAS wild-type protein to KD for KRAS
[5] = ratio of KD for HRAS wild-type protein to KD for KRAS
[6] = ratio of KD value for GDP-bound NRAS wild-type protein to KD value for KRAS (SPR)
[7] = ratio of KD value for HRAS wild-type protein to KD value for KRAS (SPR)

IC50 [2] [nM] | Kd [3] [nM] | Kd ([3]; Single Cycle Kinetics) [nM] | SMILES | NRAS /KRAS [1, 4] | HRAS /KRAS (HRAS wild-type protein; [5]) | NRAS /KRAS [1, 6] | HRAS /KRAS (HRAS wild-type protein; [7]) | NRAS /KRAS ([1]; ratio of the KD value with respect to GDP-bound NRAS wild-type protein to the KD value with respect to KRAS) | HRAS /KRAS (HRAS wild-type protein; ratio of the KD value with respect to HRAS wild-type protein to the KD value with respect to KRAS)
28.7 | 1.4 |  | CCO[C@@H]1C[C@H]2C(=O)NC3(CC(C)(C)C3)C(=O)N(C)[C@@H](C3CCCC3)C(=O)N(C)[C@H](C(=O)N(C)CC)CC(=O)N(C)[C@@H](CC(C)C)C(=O)N[C@@H]([C@@H](C)CC)C(=O)N(C)CC(=O)N(C)[C@H]3C/C=C\CCN(C3=O)[C@@H](Cc3ccc(C(F)F)cc3)C(=O)N(C)CC(=O)N[C@@H](CCc3ccc(C4CC4)c(OC)c3)C(=O)N2C1 [PP3153] | A (a compound having 10 or more and less than 20 is denoted as A) | A (a compound having 10 or more and less than 20 is denoted as A) |  |  |  | 
149 |  | 1 | CCCN1C(=O)[C@@H]2CCN2C(=O)[C@H](C)N(C)C(=O)[C@H]([C@@H](C)CC)NC(=O)[C@H](CC(C)C)N(C)C(=O)C[C@@H](C(=O)N2CCOCC2)N(C)C(=O)[C@H](C2CCCC2)N(C)C(=O)C2(CCC2)NC(=O)[C@@H]2CCCN2C(=O)[C@H](CCc2ccc(C(F)(F)F)c(Cl)c2)NC(=O)CN(C)C(=O)[C@@H]1COCCC(C)C [PP1819] ([NMeL]I[NMeA][Aze][X8][Sar][hPhe(3-Cl-4-CF3)]P[Ac4c][NMeGly(cPent)][NMeD]-Morpholide; lactam N-11) |  |  | C (A compound having a KD ratio of 0.1 or more and less than 3 is denoted as C) | C (A compound having a KD ratio of 0.1 or more and less than 3 is denoted as C) |  | 
3.5 |  | 0.074 | CCC[C@H]1C(=O)N[C@@H]([C@@H](C)CC)C(=O)N(C)CC(=O)N(C)[C@H]2C/C=C\CCN(C2=O)[C@@H](Cc2ccc(C)cc2)C(=O)N(C)CC(=O)N[C@@H](CCc2ccc(C(F)(F)F)c(OC)c2)C(=O)N2C[C@@H](C)C[C@H]2C(=O)NC2(CC(C)(C)C2)C(=O)N(C)[C@@H](C2CCCC2)C(=O)N(C)[C@H](C(=O)N(C)C)CC(=O)N1C [PP1888] |  |  | A (a compound having 10 or more and less than 20 is denoted as A) | B (a compound having 3 or more and less than 10 is denoted as B) |  | 
7.1 | 0.75 |  | CC[C@H](C)[C@@H]1NC(=O)[C@H](CC(C)C)N(C)C(=O)C[C@@H](C(=O)N2CCOCC2)N(C)C(=O)[C@H](C2CCCC2)N(C)C(=O)C2(CCCC2)NC(=O)[C@@H]2CCCN2C(=O)[C@H](CCc2ccc(C(F)(F)F)c(Cl)c2)NC(=O)CN(C)C(=O)[C@H](Cc2ccc(C(F)(F)F)cc2)N(CCC(C)(C)C)C(=O)[C@@H]2CCN2C(=O)[C@H](C)N(C)C1=O [PP0113] ([NMeL]I[NMeA][Aze][X6][Sar][hPhe(3-Cl-4-CF3)]P[Ac5c][NMeGly(cPent)][NMeD]-Morpholide; lactam N-11) | C (A compound having a KD ratio of 0.1 or more and less than 3 is denoted as C) | B (a compound having 3 or more and less than 10 is denoted as B) |  |  |  | 
62.5 | 0.64 |  | CCO[C@@H]1C[C@H]2C(=O)NC3(CC(C)(C)C3)C(=O)N(C)[C@@H](C3CCCC3)C(=O)N(C)[C@H](C(=O)N(C)CC)CC(=O)N(C)[C@@H](CC(C)C)C(=O)N[C@@H]([C@@H](C)CC)C(=O)N(C)CC(=O)N(C)[C@H]3C/C=C\CCN(C3=O)[C@@H](Cc3ccc(C(F)F)cc3)C(=O)N(C)CC(=O)N[C@@H](CCc3ccc(C4CC4)c(Cl)c3)C(=O)N2C1 [PP3155] | A (a compound having 10 or more and less than 20 is denoted as A) | A (a compound having 10 or more and less than 20 is denoted as A) |  |  |  | 
82.4 | 3.8 |  | CCC[C@H]1C(=O)N[C@@H]([C@@H](C)CC)C(=O)N(C)CC(=O)N(C)[C@H]2C/C=C\CCN(C2=O)[C@@H](Cc2ccc(C(F)(F)F)cc2)C(=O)N(C)CC(=O)N[C@@H](CCc2ccc3c(C)c(C)n(C)c3c2)C(=O)N2C[C@H](OCC)C[C@H]2C(=O)NC2(CC(C)(C)C2)C(=O)N(C)[C@@H](C(CC)CC)C(=O)N(C)[C@H](C(=O)N(C)C)CC(=O)N1C [PP2904] | AA (a compound having 20 or more is denoted as AA) | A (a compound having 10 or more and less than 20 is denoted as A) |  |  |  | 
17.6 |  | 0.34 | CCC[C@H]1C(=O)N[C@@H]([C@@H](C)CC)C(=O)N(CCC)CC(=O)N(C)[C@H]2C/C=C\CCN(C2=O)[C@@H](Cc2ccc(C)cc2)C(=O)N(C)CC(=O)N[C@@H](CCc2cc(F)c(C(F)(F)F)c(F)c2)C(=O)N2C[C@H](OCC)C[C@H]2C(=O)NC2(CC(C)(C)C2)C(=O)N(C)[C@@H](C2CCCC2)C(=O)N(C)[C@H](C(=O)N(C)C)CC(=O)N1C [PP2108] |  |  |  |  | A (a compound having 10 or more and less than 20 is denoted as A) | A (a compound having 10 or more and less than 20 is denoted as A)
